# From patent US4812312A, “Liposome-incorporated nystatin” (Board of Regents of the University of Texas System, priority 1987, dated 1989)
# Like-named read-outs stand apart in the source and are kept apart here.
# Key:
# Alternaria = test: In vitro antifungal spectrum, MIC (Table 6); format: cell-based
# Experimental: (§1) Organism, culture, and assay of antifungal activity in vitro. All strains of yeast were grown overnight at 37° C. on Sabouraud dextrose agar (SDA) plates. All molds were grown at 30° C. on SDA for 3 to 10 days prior to collection of spores. The inoculum was then processed for susceptibility testing as described earlier (Hopfer et al., Antimicrob. Agents Chemotherap., Vol. 25, pp 387-389 (1984)). A twofold serial dilution method (Shadomy et al., In E. H. Lennette, et al., (eds.) Manual of Clinical Microbiology, 3rd ed. American Society for Microbiology, Washington, D.C. , pp. 647-653 (1980)) adapted to microtiter plates was used to determine the minimal inhibitory concentration (MIC) of the drugs. The MIC of L-Nys were compared with that of free-Nys. Empty liposomes and 5% dimethylsulfoxide (DMSO) were used as controls.
# (§2) The L-Nys was prepared and tested generally as described above in this and earlier examples, except for the various new fungal varieties. […] (Hopfer et al., […], Vol. 25, No. 3, pp. 387-389 (1984)).
# Rhizopus = test: In vitro antifungal spectrum, MIC (Table 6); format: cell-based
# Experimental: as §1, §2
# Aspergillus fumigatus = test: In vitro antifungal spectrum, MIC (Table 6); format: cell-based
# Experimental: as §1, §2
# [1] = tested on: Aspergillus not fumigatus; test: In vitro antifungal spectrum, MIC (Table 6); format: cell-based
# Experimental: as §1, §2
# Candida paratropicalis = test: In vitro antifungal spectrum, MIC (Table 6); format: cell-based
# Experimental: as §1, §2
# Fusarium = test: In vitro antifungal spectrum, MIC (Table 6); format: cell-based
# Experimental: as §1, §2
# Aspergillus niger = test: In vitro antifungal spectrum, MIC (Table 6); format: cell-based
# Experimental: as §1, §2
# Cryptococcus neoformans = test: In vitro antifungal spectrum, MIC (Table 6); format: cell-based
# Experimental: as §1, §2
# Candida tropicalis = test: In vitro antifungal spectrum, MIC (Table 6); format: cell-based
# Experimental: as §1, §2
# Mucor = test: In vitro antifungal spectrum, MIC (Table 6); format: cell-based
# Experimental: as §1, §2
# Curvularia = test: In vitro antifungal spectrum, MIC (Table 6); format: cell-based
# Experimental: as §1, §2
# Allescheria = test: In vitro antifungal spectrum, MIC (Table 6); format: cell-based
# Experimental: as §1, §2
# Candida albicans [2] = test: In vitro antifungal spectrum, MIC (Table 6); format: cell-based
# Experimental: as §1, §2
# Aspergillus flavus = test: In vitro antifungal spectrum, MIC (Table 6); format: cell-based
# Experimental: as §1, §2
# Torulopsis globrata = test: In vitro antifungal spectrum, MIC (Table 6); format: cell-based
# Experimental: as §1, §2
# Candida albicans [3] = test: Multiple-dose therapy with Nys or L-Nys of disseminated C. albicans infection in mice; format: in vivo, Hale-Stoner mice
# Experimental: (§3) Hale-Stoner mice, six to eight weeks old (body weight, 20-25 g) were purchased from The University of Texas Science Park (Bastrop, TX). The mice (eight per group) were injected with 0.2 ml of C. albicans cell suspension containing 7×10^5 colony-forming units (cfu) via the tail vein. This concentration of cells was consistent in producing a disseminated infection after 48 hr, affecting liver, spleen, lungs, and kidneys primarily. Infected mice were treated with increasing doses of free-Nys, ranging from 1 mg to 4 mg/kg body weight (FIG. 5).
# Two days after the injection of C. albicans (iv), (as described in Examples 9 and 10), the mice were treated with different doses of free-Nys, L-Nys, empty liposomes or 5% DMSO control for five consecutive days. The multiple-dose groups were also compared with appropriate cumulative single doses (see Example 10). The animals were then observed for survival or any toxicity pertaining to the treatment with five daily doses.
# These experiments were terminated at 60 days, and blood and tissue samples were collected from the surviving animals after sacrifice.
# Survival curves were calculated by the method of Kaplan and Meier (J. Amer. Stat. Assoc., Vol. 53, pp 457-462 […]) and tests for differences in survival distributions were based on a generalized Wilcoxon test (Gehan., Biometrika, Vol. 52, pp 203-223 (1965)). […]
# [4] = cited from earlier work
# human RBCs = test: Lysis of human red blood cells (hemoglobin release at 550 nm); format: cell-based; settings: 37 °C, 45 min
# Experimental: Lysis of human red blood cells (RBCs) was quantitated by measuring the release of hemoglobin in the supernatants at 550 nm, as described previously (Mehta et al., Biochem. Biophys, Acta., Vol. 770, pp. 230-234 (1984)). Various doses of L-Nys were incubated with fresh washed human RBCs at 37° C for 45 min. Free-Nys, dissolved in dimethyl formamide (DMFA), was added to the assay at a 3% final solvent concentration. Appropriate solvent controls, empty liposomes, and empty liposomes plus free-drug were also included in each experiment. Release of hemoglobin by hypotonic lysis of the same number of human RBCs by water was taken as 100% positive control, while cells treated with PBS were taken as negative controls.
# mice = test: In vivo toxicology in Hale-Stoner mice
# Experimental: Groups of eight Hale-Stoner mice (6-8 weeks old, body wt=20-25 g; Univ. of TX Science Park, Bastrop, TX) each were injected with various doses of free-Nys (in 5% DMSO diluted with saline), L-Nys, empty liposomes or 5% DMSO as control. […] After 45 days, the surviving animals were sacrificed and blood and tissue samples were obtained. Blood biochemistry examination included blood urea nitrogen, alkaline phosphatase, and lactic dehydrogenase (LDH). The organs (liver, spleen, lungs and kidneys) were obtained and preserved in 10% formalin. Tissue slices were processed for hematoxylin-eosin and Gomori methenamine silver stains.
# [5] = orally and topically; cited from earlier work
# [6] = tested on: Candida albicans strain 336; test: In vitro MIC, twofold serial dilution, C. albicans strain 336 (Table 5); format: cell-based
# Experimental: as §1
# The antifungal activity was maintained after Nys was entrapped in liposomes with or without sterols.
# Candida albicans [7] = test: Single-dose therapy with free Nys or L-Nys of disseminated C. albicans infection in mice; format: in vivo, Hale-Stoner mice; settings: 4 mg/kg
# Experimental: as §3
# Mice were infected with C. albicans as described in Example 9. Groups of eight mice each were injected (iv) with various doses of free-Nys, L-Nys, empty liposomes or 5% DMSO two days after the injection of C. albicans. The survival of the animals in each group was noted and compared with that of the untreated control group.
# Candida albicans [8] = test: Single-dose therapy with free Nys of disseminated C. albicans infection in mice; format: in vivo, Hale-Stoner mice; settings: single iv dose, 1 mg to 4 mg/kg
# Experimental: as §3
# [9] = Solubility of nystatin / polyenes; format: physicochemical
# HTLV-III/LAV = settings: cell line H9; cited from earlier work
smiles,measurement,setting,value
"C[C@@H]1[C@H](O)[C@@H](C)/C=C/C=C/CC/C=C/C=C/C=C/C=C/C(O[C@H]2O[C@H](C)[C@@H](O)[C@H](N)[C@@H]2O)CC2O[C@](O)(CC(O)C(O)CCC(O)CC(O)CC(O)CC(=O)O[C@H]1C)CC(O)C2C(=O)O (some centres unmarked) [free-Nys, nystatin]",Minimal Inhibitory Concentration,Alternaria,2 µg/mL
same,Minimal Inhibitory Concentration,Rhizopus,4 µg/mL
same,Minimal Inhibitory Concentration,Aspergillus fumigatus,8 µg/mL
same,Minimal Inhibitory Concentration,[1]; Aspergillus not fumigatus #1,4 µg/mL
same,Minimal Inhibitory Concentration,[1]; Aspergillus not fumigatus #2,16 µg/mL
same,Minimal Inhibitory Concentration,Candida paratropicalis; C. paratropicalis #1,2 µg/mL
same,Minimal Inhibitory Concentration,Candida paratropicalis; C. paratropicalis #2,2 µg/mL
same,Minimal Inhibitory Concentration,Candida paratropicalis; C. paratropicalis #3,4 µg/mL
same,Minimal Inhibitory Concentration,Candida paratropicalis; C. paratropicalis #4,4 µg/mL
same,Minimal Inhibitory Concentration,Fusarium,62.5 µg/mL
same,Minimal Inhibitory Concentration,Aspergillus niger,4 µg/mL
same,Minimal Inhibitory Concentration,Cryptococcus neoformans; Cryptococcus neoformans #1,4 µg/mL
same,Minimal Inhibitory Concentration,Cryptococcus neoformans; Cryptococcus neoformans #2,4 µg/mL
same,Minimal Inhibitory Concentration,Candida tropicalis; C. tropicalis #1,16 µg/mL
same,Minimal Inhibitory Concentration,Candida tropicalis; C. tropicalis #2,8 µg/mL
same,Minimal Inhibitory Concentration,Candida tropicalis; C. tropicalis #3,4 µg/mL
same,Minimal Inhibitory Concentration,Candida tropicalis; C. tropicalis #4,4 µg/mL
same,Minimal Inhibitory Concentration,Mucor,2 µg/mL
same,Minimal Inhibitory Concentration,Curvularia,2 µg/mL
same,Minimal Inhibitory Concentration,Allescheria,16 µg/mL
same,Minimal Inhibitory Concentration,Candida albicans [2]; C. albicans #1,2 µg/mL
same,Minimal Inhibitory Concentration,Candida albicans [2]; C. albicans #2,2 µg/mL
same,Minimal Inhibitory Concentration,Candida albicans [2]; C. albicans #3,4 µg/mL
same,Minimal Inhibitory Concentration,Candida albicans [2]; C. albicans #4,4 µg/mL
same,Minimal Inhibitory Concentration,Candida albicans [2]; C. albicans #5,8 µg/mL
same,Minimal Inhibitory Concentration,Candida albicans [2]; C. albicans #6,4 µg/mL
same,Minimal Inhibitory Concentration,Candida albicans [2]; C. albicans #7,8 µg/mL
same,Minimal Inhibitory Concentration,Candida albicans [2]; C. albicans #8,8 µg/mL
same,Minimal Inhibitory Concentration,Candida albicans [2]; C. albicans #9,4 µg/mL
same,Minimal Inhibitory Concentration,Candida albicans [2]; C. albicans #10,4 µg/mL
same,Minimal Inhibitory Concentration,Aspergillus flavus,1 µg/mL
same,Minimal Inhibitory Concentration,Torulopsis globrata; Torulopsis globrata #1,4 µg/mL
same,Minimal Inhibitory Concentration,Torulopsis globrata; Torulopsis globrata #2,2 µg/mL
same,Minimal Inhibitory Concentration,Torulopsis globrata; Torulopsis globrata #3,4 µg/mL
same,Minimal Inhibitory Concentration,Torulopsis globrata; Torulopsis globrata #4,4 µg/mL
same,survival time,Candida albicans [3]; single or multiple doses,10 days
same,survival of infected mice,"Candida albicans [3]; single or multiple doses (MTD, five consecutive days)",died as rapidly as the untreated controls
same,solubility in water,[4]; listed as Nys,substantially water-insoluble
same,solubility in water,[4]; listed as Nystatin,aqueous insolubility
same,lysis of human RBCs,human RBCs; 120 ug/ml,100%
same,concentration range with linear increase in lysis of human RBCs,human RBCs,60 to 120 µg/mL
same,mortality,"mice; 4.4 mg/kg, mice, iv",all the animals died immediately
same,toxicity and efficacy when administered intravenously,"mice; intravenous, summary",toxic and noneffective when administered intravenously
same,maximal tolerated dose (MTD),"mice; mice, iv, per body weight",4 mg/kg
same,tolerability,[5],Tolerated well both orally and topically
same,Minimal Inhibitory Concentration,[6],1.0 µg/mL
same,therapeutic effect in vivo,Candida albicans [7],no therapeutic effect in vivo
same,survival of infected mice versus untreated control,Candida albicans [8],None of the doses tested improved the survival of infected mice
same,soluble in DMFA,"[9]; N,N-dimethylformamide",15 mg/mL
same,soluble in DMSO,[9]; dimethyl sulfoxide,40 mg/mL
same,soluble in methanol,[9]; methanol,1 mg/mL
COC(=O)[C@H]1[C@@H]2C[C@@H](O[C@@H]3O[C@H](C)[C@@H](O)[C@H](N)[C@@H]3O)/C=C/C=C/C=C/C=C/C=C/C=C/C=C/[C@H](C)[C@@H](O)[C@@H](C)[C@H](C)OC(=O)C[C@H](O)C[C@H](O)CC[C@@H](O)[C@H](O)C[C@H](O)C[C@](O)(C[C@@H]1O)O2 [amphotericin B methyl ester ascorbate],replication of HTLV-III/LAV in H9 cells,HTLV-III/LAV,inhibited
C[C@@H]1[C@H](O)[C@@H](C)/C=C/C=C/C=C/C=C/C=C/C=C/C=C/[C@H](O[C@@H]2O[C@H](C)[C@@H](O)[C@H](N)[C@@H]2O)C[C@@H]2O[C@](O)(C[C@@H](O)C[C@@H](O)[C@H](O)CC[C@@H](O)C[C@@H](O)CC(=O)O[C@H]1C)C[C@H](O)[C@H]2C(=O)O [amphotericin B],replication of HTLV-III/LAV in H9 cells,HTLV-III/LAV,inhibited
